Assay results as given in US6025385A, “Taxane derivatives and drugs containing the same” (Kabushiki Kaisha Yakult Honsha, priority 1996, dated 2000).
≈ marks a conversion by molar mass, not a printed value. Where two headings read alike, the source gives them in different places.

Key:
[1] = Solubility in water (HPLC, shaken 2 hours at room temperature); details: for Dissolved amount (Y): amount in 5 μl injected, purified water with 0.1 N hydrochloric acid, room temperature, 2 hours; for solubility thermodynamic at 2 h: water with 0.1 n hcl
Method: I) Preparation of calibration curves:
Using 20 μl portions of the standard solutions, tests were conducted by HPLC (operation conditions 1).
[HPLC operation conditions 1]
Column: Inertsil ODS-2 (5-250), 40 deg.
Mobile phase: 0.01 M KH2 PO4 --CH3 CN (5:4).
Detection: Ultraviolet absorption photometer (225 nm), 0.08AUFS.
To the respective suspensions, 0.1 N hydrochloric acid was added in amounts of 35 λl and 30 μl (1.1 eq.). By ultrasonication the resulting mixtures were formed into uniform suspensions, which were then shaken at room temperature for 2 hours. The thus-obtained mixtures were filtered through membrane filters (0.22 pm), and the filtrates were provided as test solutions. Using 5 μl portions of the test solutions, tests were conducted by HPLC (operation conditions 1).
I) Preparation of calibration curve:
By ultra-sonication the suspension was formed into a uniform suspension, which was then shaken at room temperature for 2 hours.
Using 20 At of the standard solution, a test was conducted by HPLC (operation conditions 1).
Operation conditions for the HPLC operation were set as in Test 1.
By ultrasonication the resulting mixture was formed into a uniform suspension, which was then shaken at room temperature for 2 hours. The mixture was filtered through a membrane filter (0.22 pm), and the filtrate was provided as a test solution. Using 5 μl of the test solution, a test was conducted by HPLC (the above operation conditions).

[2] = test system: cell strain KB derived from a human mouth cancer; assay: Growth inhibitory activity against KB cells (XTT assay); format: cell-based; details: for GI50: Homo sapiens, 72 h, read-out: 50% Growth Inhibitory Concentration (GI50), KB; for Activity ratio: KB GI50 relative to Taxol (Taxol = 1.0)
Method: Growth Inhibitory Activities of Taxane Derivatives (1)
As a cell strain KB derived from a human mouth cancer, one purchased from Dainippon Pharmaceutical Co., Ltd. and stored in a lyophilized form at The Central Research Center, Yakult Honsha Co., Ltd. was used. In Dulbeccols modefied Earglets medium containing 10% fetal bovine serum (product of NISSUI PHARMACEUTICAL CO., LTD.), the KB was maintenance-cultured under the following conditions: 5%, CO2 -air, 37° C.
Each compound was used by dissolving it at a concentration of 10 mg/ml in DMSO.
On Day-1, cells which were in a logarithmic growth phase were inoculated at 2,000 cells/100 μl/well on 96-well microtiter plates (Falcon #3072) by using a phenol-red-free culture medium with 10% fetal bovine serum contained therein (Dulbecco's molefied Eargle's medium (Sigma)), and were cultured overnight. On Day 0, the compounds each of which had been diluted to 0.03 to 10,000 ng/ml with the same culture medium were added in 100 μl aliquots to the individual wells, and the cells were cultured for 3 days. Three wells were used per each drug concentration. Each plate was provided with three blank wells containing only the culture medium and also with eight wells as a drug-untreated control.
Before use, XTT (Sigma) was dissolved at a concentration of 1 mg/me in each culture media which as free of serum. Phenodin methosulfate (Sigma) dissolved at a concentration of 5 mM in PBS was added to the resulting solution at a volume ratio of 1/200. To each well, the solution so prepared was added in an amount of 50 μl per well. Subsequent to culture for 4 hours, OD was measured at 450 nm by ELISA.
Calculation of 50% Growth Inhibitory Concentration (GI50)
GI50 was calculated by interpolation from a concentration-growth inhibition rate (GIR). GIR was determined in accordance with the following formula: [formula] Bibiography Scudiero D A, et al., Cacer Res., 48, 4827-4833, 1988.
1994 Report of The Anticancer Agent Screening Special Committee, "Cancers and Chemotherapy", 21, 1306-1307.

[3] = test system: ovarian cancer and breast cancer; details: Ann. int. Med. 111, 273, 1989; cited from earlier work
[4] = background statement; cited from earlier work
[5] = purified water with hydrochloric acid

Structure (SMILES) | Dissolved amount (Y) [1] [μg/5 μl] | solubility at 2 h [1, 5] [µg/mL] | solubility thermodynamic at 2 h [1] [µg/mL] | GI50 ([2]; KB) [ng/mL] | Activity ratio [2] | GI50 ([2]; KB cells, 3 days culture, XTT) [ng/mL] | further results
CC(=O)O[C@@]12CO[C@@H]1C[C@H](O)[C@@]1(C)C(=O)[C@H](OC(=O)N3CCC(N(C)C)CC3)C3=C(C)[C@@H](OC(=O)[C@H](O)[C@@H](NC(=O)OC(C)(C)C)c4ccccc4)C[C@@](O)([C@@H](OC(=O)c4ccccc4)[C@H]21)C3(C)C [Compound 3, 13-O-[3-(tert-Butoxycarbonylamino)-2-hydroxy-3-phenylpropionyl]-10-O-(4-dimethylaminopiperidinocarbonyl)-10-deacetylbaccatin III] | 6.31 | 1260 (≈ 1310 µM) | 1260 (≈ 1310 µM) |  |  |  | 
CCCN(CCC)C1CCN(C(=O)O[C@H]2C(=O)[C@@]3(C)[C@H]([C@H](OC(=O)c4ccccc4)[C@]4(O)C[C@H](OC(=O)[C@H](O)[C@@H](NC(=O)OC(C)(C)C)c5ccccc5)C(C)=C2C4(C)C)[C@]2(OC(C)=O)CO[C@@H]2C[C@@H]3O)CC1 [Compound 6, 13-O-[3-(tert-Butoxycarbonylamino)-2-hydroxy-3-phenylpropionyl]-10-O-(4-dipropylaminopiperidinocarbonyl)-10-deacetylbaccatin III] |  |  |  | 0.73 (≈ 0.000717 µM) | 2.7 |  | 
CC(=O)O[C@@]12CO[C@@H]1C[C@H](O)[C@@]1(C)C(=O)[C@H](OC(=O)N3CCC(N4CCCCC4)CC3)C3=C(C)[C@@H](OC(=O)[C@H](O)[C@@H](NC(=O)OC(C)(C)C)c4ccccc4)C[C@@](O)([C@@H](OC(=O)c4ccccc4)[C@H]21)C3(C)C [Compound 9, 13-O-[3-(tert-Butoxycarbonylamino)-2-hydroxy-3-phenylpropionyl]-10-O-(4-piperidinopiperidinocarbonyl)-10-deacetylbaccatin III] |  |  |  |  | 2.6 | 0.78 (≈ 0.000778 µM) | 
CC(=O)O[C@@]12CO[C@@H]1C[C@H](O)[C@@]1(C)C(=O)[C@H](OC(=O)N3CCN(C)CC3)C3=C(C)[C@@H](OC(=O)[C@H](O)[C@@H](NC(=O)OC(C)(C)C)c4ccccc4)C[C@@](O)([C@@H](OC(=O)c4ccccc4)[C@H]21)C3(C)C [Compound 39, 13-O-[3-(tert-Butoxycarbonylamino)-2-hydroxy-3-phenylpropionyl]-10-O-(4-methylpiperazinocarbonyl)-10-deacetylbaccatin III] |  |  |  |  | 3.4 | 0.59 (≈ 0.000632 µM) | 
CCN1CCN(C(=O)O[C@H]2C(=O)[C@@]3(C)[C@H]([C@H](OC(=O)c4ccccc4)[C@]4(O)C[C@H](OC(=O)[C@H](O)[C@@H](NC(=O)OC(C)(C)C)c5ccccc5)C(C)=C2C4(C)C)[C@]2(OC(C)=O)CO[C@@H]2C[C@@H]3O)CC1 [Compound 42, 13-O-[3-(tert-Butoxycarbonylamino)-2-hydroxy-3-phenylpropionyl]-10-O-(4-ethylpiperazinocarbonyl)-10-deacetylbaccatin III] | 5.90 | 1180 (≈ 1240 µM) | 1180 (≈ 1240 µM) | 0.65 (≈ 0.000686 µM) | 3.1 |  | 
CC(=O)O[C@@]12CO[C@@H]1C[C@H](O)[C@@]1(C)C(=O)[C@H](OC(=O)N3CCN(CC(=O)NC(C)C)CC3)C3=C(C)[C@@H](OC(=O)[C@H](O)[C@@H](NC(=O)OC(C)(C)C)c4ccccc4)C[C@@](O)([C@@H](OC(=O)c4ccccc4)[C@H]21)C3(C)C [Compound 45, 13-O-[3-(tert-Butoxycarbonylamino)-2-hydroxy-3-phenylpropionyl]-10-O-[4-(isopropylaminocarbonylmethyl)piperazinocarbonyl]-10-deacetylbaccatin III] |  |  |  |  | 2.3 | 0.86 (≈ 0.000844 µM) | 
CC(=O)O[C@H]1C(=O)[C@@]2(C)[C@H]([C@H](OC(=O)c3ccccc3)[C@]3(O)C[C@H](OC(=O)[C@H](O)[C@@H](NC(=O)N4CCC(N5CCCCC5)CC4)c4ccccc4)C(C)=C1C3(C)C)[C@]1(OC(C)=O)CO[C@@H]1C[C@@H]2O [Compound 58, 13-O-[2-Hydroxy-3-phenyl-3-(4-piperidinopiperidinocarbonylamino)propionyl]baccatin III] | 7.95 | 1590 (≈ 1680 µM) | 1590 (≈ 1680 µM) |  |  |  | 
CC(=O)O[C@H]1C(=O)[C@@]2(C)[C@H]([C@H](OC(=O)c3ccccc3)[C@]3(O)C[C@H](OC(=O)[C@H](O)[C@@H](NC(=O)c4ccccc4)c4ccccc4)C(C)=C1C3(C)C)[C@]1(OC(C)=O)CO[C@@H]1C[C@@H]2O [Taxol, reference compound] |  |  |  | 2 (≈ 0.00234 µM) |  |  | efficacy against ovarian cancer and breast cancer [3]: high efficacy against ovarian cancer and breast cancer; solubility at 2 h ([1]; purified water): 0.4 µg/mL (≈ 0.468 µM); solubility in water (in words) [4]: sparingly soluble in water
